# Experimental data from patent publication US20210222225A1, “Medium for Disk Diffusion Method to Evaluate Antibiotic Sensitivity” (priority 2018, published 2021).
# Tests used:
# PAE P1477_S = assay: Colistin disk diffusion, guanidine hydrochloride medium, P1477_S; format: cell-based, Pseudomonas aeruginosa; settings: 30% agar
# Procedure: (§1) A concentration of agar particles (BD Diagnostic, Sparks, Md., USA) in Mueller-Hinton broth medium (BD Diagnostic) was adjusted to 5.1 g/L, which is 30% of 17 g/L, and guanidine hydrochloride was added to a concentration of 500 μg/ml, 50 μg/ml, or 5 μg/ml. Then, solidification was performed. On a surface of each medium thus prepared was evenly inoculated each of colistin-susceptible (S) or -resistant (R) Acinetobacter baumannii (ABA) strain, colistin-susceptible (S) or -resistant (R) Klebsiella pnemoniae (KPN) strain, and colistin-susceptible (S) or -resistant (R) Pseudomonas aeruginosa (PAE) strain, and a colistin disk was placed thereon. Then, pictures of a growth inhibition zone, which had been formed clear, around the disk were taken for each strain, and the results are illustrated in FIGS. 8 to 10.
# [1] = system: Pseudomonas aeruginosa ATCC27853 strain; assay: Colistin disk diffusion on modified Mueller-Hinton agar, PAE; format: cell-based
# Procedure: (§2) To each MHA thus modified was added protamine (Sigma-Aldrich, St Louis, Mo., USA) at a concentration of 100 μg/ml, and solidification was performed. Then, on a surface of the medium was evenly inoculated each of colistin-susceptible (S) or -resistant (R) Acinetobacter calcoaceticus-baumannii complex (ACB) strain, Pseudomonas aeruginosa ATCC27853 strain, Escherichia coli ATCC25922 strain, and mcr-1-harboring Enterobacter aerogenes strain, and a colistin disk was placed thereon. Subsequently, a diameter of a growth inhibition zone (colistin inhibition zone), which had been formed clear by diffusion of colistin to the agar around the colistin disk, was measured.
# (§3) As in Example 1, a concentration of agar particles (BD Diagnostic, Sparks, Md., USA) in Mueller-Hinton broth medium (BD Diagnostic) was adjusted to 17 g/L or 5.1 g/L that is 30% of 17 g/L. To select a concentration of protamine, which can enhance diffusion of colistin from a disk without interfering with bacterial growth, while using the protamine at various concentrations, protamine (Sigma-Aldrich, St Louis, Mo., USA) was added to the medium at concentrations of 1 mg/ml, 700 μg/ml, 400 μg/ml, 300 μg/ml, 200 μg/ml, 150 μg/ml, 100 μg/ml, and 50 μg/ml. Each medium thus modified was solidified. Then, on a surface of each medium was evenly inoculated each of colistin-susceptible (S) or -resistant (R) Acinetobacter calcoaceticus-baumannii complex (ACB) strain, Pseudomonas aeruginosa ATCC27853 strain, and mcr-1-harboring Enterobacter aerogenes strain, and a colistin disk was placed thereon. Then, it was determined whether each strain was grown, and a diameter of a growth inhibition zone, which had been formed around the disk, was measured.
# ABA A5_R = assay: Colistin disk diffusion, guanidine hydrochloride medium, A5_R; format: cell-based, Acinetobacter baumannii; settings: 30% agar
# Procedure: as §1
# [2] = system: mcr-1-harboring Enterobacter aerogenes strain; assay: Colistin disk diffusion on modified Mueller-Hinton agar, mcr-1; format: cell-based
# Procedure: as §2, §3
# [3] = system: colistin-susceptible (S) Acinetobacter calcoaceticus-baumannii complex (ACB) strain; assay: Colistin disk diffusion on modified Mueller-Hinton agar, ACB-S; format: cell-based
# Procedure: as §2, §3
# KPN K4036_R = assay: Colistin disk diffusion, guanidine hydrochloride medium, K4036_R; format: cell-based, Klebsiella pnemoniae; settings: 30% agar
# Procedure: as §1
# [4] = guanidine hydrochloride 5 μg/ml
# [5] = guanidine hydrochloride 50 μg/ml
# [6] = guanidine hydrochloride 500 μg/ml
# [7] = 30% agar, protamine 1,000 μg/ml
# [8] = 100% agar, protamine 1,000 μg/ml
substance,measurement,setting,value
colistin,Disk diffusion (mm),PAE P1477_S; [4],16 mm
same,Disk diffusion (mm),PAE P1477_S; [5],16 mm
same,Disk diffusion (mm),PAE P1477_S; [6],14 mm
same,Disk diffusion (mm),"[1]; 30% agar, protamine 50 μg/ml",17 mm
same,Diameter (mm) of colistin inhibition zone,"[1]; 30% agar, protamine 100 μg/ml",16 mm
same,Disk diffusion (mm),"[1]; 30% agar, protamine 100 μg/ml",18 mm
same,Disk diffusion (mm),"[1]; 30% agar, protamine 150 μg/ml",18 mm
same,Disk diffusion (mm),"[1]; 30% agar, protamine 200 μg/ml",20 mm
same,Disk diffusion (mm),"[1]; 30% agar, protamine 300 μg/ml",6 mm
same,Disk diffusion (mm),"[1]; 30% agar, protamine 400 μg/ml",6 mm
same,Disk diffusion (mm),"[1]; 30% agar, protamine 700 μg/ml",6 mm
same,Disk diffusion (mm),[1]; [7],6 mm
same,Diameter (mm) of colistin inhibition zone,"[1]; 40% agar, protamine 100 μg/ml",15 mm
same,Diameter (mm) of colistin inhibition zone,"[1]; 50% agar, protamine 100 μg/ml",14 mm
same,Diameter (mm) of colistin inhibition zone,"[1]; 60% agar, protamine 100 μg/ml",15 mm
same,Diameter (mm) of colistin inhibition zone,"[1]; 70% agar, protamine 100 μg/ml",14 mm
same,Diameter (mm) of colistin inhibition zone,"[1]; 80% agar, protamine 100 μg/ml",14 mm
same,Diameter (mm) of colistin inhibition zone,"[1]; 90% agar, protamine 100 μg/ml",13 mm
same,Disk diffusion (mm),"[1]; 100% agar, protamine 50 μg/ml",14 mm
same,Diameter (mm) of colistin inhibition zone,"[1]; 100% agar, protamine 100 μg/ml",13 mm
same,Disk diffusion (mm),"[1]; 100% agar, protamine 100 μg/ml",14 mm
same,Disk diffusion (mm),"[1]; 100% agar, protamine 150 μg/ml",14 mm
same,Disk diffusion (mm),"[1]; 100% agar, protamine 200 μg/ml",13 mm
same,Disk diffusion (mm),"[1]; 100% agar, protamine 300 μg/ml",14 mm
same,Disk diffusion (mm),"[1]; 100% agar, protamine 400 μg/ml",15 mm
same,Disk diffusion (mm),"[1]; 100% agar, protamine 700 μg/ml",17 mm
same,Disk diffusion (mm),[1]; [8],18 mm
same,Disk diffusion (mm),ABA A5_R; [4],10 mm
same,Disk diffusion (mm),ABA A5_R; [5],10 mm
same,Disk diffusion (mm),ABA A5_R; [6],10 mm
same,Disk diffusion (mm),"[2]; 30% agar, protamine 50 μg/ml",9 mm
same,Diameter (mm) of colistin inhibition zone,"[2]; 30% agar, protamine 100 μg/ml",11 mm
same,Disk diffusion (mm),"[2]; 30% agar, protamine 100 μg/ml",9 mm
same,Disk diffusion (mm),"[2]; 30% agar, protamine 150 μg/ml",9 mm
same,Disk diffusion (mm),"[2]; 30% agar, protamine 200 μg/ml",8 mm
same,Disk diffusion (mm),"[2]; 30% agar, protamine 300 μg/ml",6 mm
same,Disk diffusion (mm),"[2]; 30% agar, protamine 400 μg/ml",6 mm
same,Disk diffusion (mm),"[2]; 30% agar, protamine 700 μg/ml",6 mm
same,Disk diffusion (mm),[2]; [7],6 mm
same,Diameter (mm) of colistin inhibition zone,"[2]; 40% agar, protamine 100 μg/ml",10 mm
same,Diameter (mm) of colistin inhibition zone,"[2]; 50% agar, protamine 100 μg/ml",11 mm
same,Diameter (mm) of colistin inhibition zone,"[2]; 60% agar, protamine 100 μg/ml",10 mm
same,Diameter (mm) of colistin inhibition zone,"[2]; 70% agar, protamine 100 μg/ml",10 mm
same,Diameter (mm) of colistin inhibition zone,"[2]; 80% agar, protamine 100 μg/ml",9 mm
same,Diameter (mm) of colistin inhibition zone,"[2]; 90% agar, protamine 100 μg/ml",10 mm
same,Disk diffusion (mm),"[2]; 100% agar, protamine 50 μg/ml",9 mm
same,Diameter (mm) of colistin inhibition zone,"[2]; 100% agar, protamine 100 μg/ml",10 mm
same,Disk diffusion (mm),"[2]; 100% agar, protamine 100 μg/ml",9 mm
same,Disk diffusion (mm),"[2]; 100% agar, protamine 150 μg/ml",10 mm
same,Disk diffusion (mm),"[2]; 100% agar, protamine 200 μg/ml",9 mm
same,Disk diffusion (mm),"[2]; 100% agar, protamine 300 μg/ml",10 mm
same,Disk diffusion (mm),"[2]; 100% agar, protamine 400 μg/ml",8 mm
same,Disk diffusion (mm),"[2]; 100% agar, protamine 700 μg/ml",10 mm
same,Disk diffusion (mm),[2]; [8],6 mm
same,Disk diffusion (mm),"[3]; 30% agar, protamine 50 μg/ml",14 mm
same,Diameter (mm) of colistin inhibition zone,"[3]; 30% agar, protamine 100 μg/ml",16 mm
same,Disk diffusion (mm),"[3]; 30% agar, protamine 100 μg/ml",15 mm
same,Disk diffusion (mm),"[3]; 30% agar, protamine 150 μg/ml",15 mm
same,Disk diffusion (mm),"[3]; 30% agar, protamine 200 μg/ml",14 mm
same,Disk diffusion (mm),"[3]; 30% agar, protamine 300 μg/ml",6 mm
same,Disk diffusion (mm),"[3]; 30% agar, protamine 400 μg/ml",6 mm
same,Disk diffusion (mm),"[3]; 30% agar, protamine 700 μg/ml",6 mm
same,Disk diffusion (mm),[3]; [7],6 mm
same,Diameter (mm) of colistin inhibition zone,"[3]; 40% agar, protamine 100 μg/ml",15 mm
same,Diameter (mm) of colistin inhibition zone,"[3]; 50% agar, protamine 100 μg/ml",13 mm
same,Diameter (mm) of colistin inhibition zone,"[3]; 60% agar, protamine 100 μg/ml",13 mm
same,Diameter (mm) of colistin inhibition zone,"[3]; 70% agar, protamine 100 μg/ml",13 mm
same,Diameter (mm) of colistin inhibition zone,"[3]; 80% agar, protamine 100 μg/ml",12 mm
same,Diameter (mm) of colistin inhibition zone,"[3]; 90% agar, protamine 100 μg/ml",12 mm
same,Disk diffusion (mm),"[3]; 100% agar, protamine 50 μg/ml",13 mm
same,Diameter (mm) of colistin inhibition zone,"[3]; 100% agar, protamine 100 μg/ml",12 mm
same,Disk diffusion (mm),"[3]; 100% agar, protamine 100 μg/ml",12 mm
same,Disk diffusion (mm),"[3]; 100% agar, protamine 150 μg/ml",13 mm
same,Disk diffusion (mm),"[3]; 100% agar, protamine 200 μg/ml",12 mm
same,Disk diffusion (mm),"[3]; 100% agar, protamine 300 μg/ml",13 mm
same,Disk diffusion (mm),"[3]; 100% agar, protamine 400 μg/ml",14 mm
same,Disk diffusion (mm),"[3]; 100% agar, protamine 700 μg/ml",10 mm
same,Disk diffusion (mm),[3]; [8],6 mm
same,Disk diffusion (mm),KPN K4036_R; [4],16 mm
same,Disk diffusion (mm),KPN K4036_R; [5],16 mm
same,Disk diffusion (mm),KPN K4036_R; [6],14 mm
